Data from PMC9821969, “Metabolomic Strategy to Characterize the Profile of Secondary Metabolites in Aspergillus aculeatus DL1011 Regulated by Chemical Epigenetic Agents” (Molecules, 2022).
pIC50: −log10 of the molar value.

Molecular target: T1, SHP1 (Homo sapiens, UniProt P29350)
T1 construct: gene PTPN6; domain protein
T1 sequence (P29350 244-515 limits assumed): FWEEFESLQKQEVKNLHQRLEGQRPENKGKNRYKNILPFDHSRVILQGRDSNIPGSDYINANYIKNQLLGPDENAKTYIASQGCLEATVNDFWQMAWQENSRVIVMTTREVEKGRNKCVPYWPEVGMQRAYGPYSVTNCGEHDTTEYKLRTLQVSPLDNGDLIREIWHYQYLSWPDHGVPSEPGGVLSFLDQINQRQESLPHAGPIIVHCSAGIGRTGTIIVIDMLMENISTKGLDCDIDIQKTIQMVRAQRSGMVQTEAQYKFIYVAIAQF
Assay: pNPP phosphatase assay, absorbance at […] nm
Format: biochemical

`CO[C@@]1(C)[C@H](O)C(=O)C(C)=C(O)[C@@H]1Oc1c(C)c(O)cc(C)c1C(=O)O` [S10, Roseopurpurin A] was tested, and the pIC50 was 4.80.
